The text below walks through data of patent publication US9382254B2, “Compounds and pharmaceutical compositions thereof for the treatment of cystic fibrosis” (Galapagos NV, priority 2013, dated 2016).

Test [1] deals with T1, CFTR G551D mutant (Homo sapiens, UniProt P13569, G551D).
T1 construct: expressed in transfected cells; host or cells: HEK293 (reverse transfection with plasmid)
In words: YFP-halide influx assay for the CFTR-G551D mutation. The class given is cell-based. The conditions noted are these: HEK293 cells, forskolin 10.67 μM. From the text: The YFP halide influx assay measures the functionality of the cystic fibrosis Transmembrane Conductance regulator (CFTR) channels. The assay is used to evaluate the capacity of compounds to increase the channel opening of existing mutant CFTR channels in the membrane. It makes use of the observation that the yellow fluorescent protein (YFP) variant YFP H148Q, I152L, […] has its fluorescence substantially quenched by halide ions like Cl^− and I^−. (Galietta, Haggie, & Verkman, 2001)
For this purpose, HEK293-cells are seeded in 96 well plates. During seeding, the cells are reverse-transfected with plasmid vectors that direct the expression of the CFTR G551D mutant and of the YFP reporter. Cells are incubated at 37° C., 5% CO2 for 24 hours so as to allow for sufficient expression of the CFTR protein.
The I^−-induced quenching of fluorescence is recorded immediately after injection of I^− for 7 seconds. The capacity of a compound to increase the channel opening is directly correlated with the decrease in fluorescence, and is expressed as (1-(fluorescence after 7 seconds (F)/fluorescence before injection (F0))) and an EC50 can be derived from a (1-F/F0) vs compound concentration plot.

For test [2], the target named is T2, CFTR ΔF508 mutant (Homo sapiens, UniProt P13569, DEL508-508).
T2 construct: expressed in transfected cells; host or cells: CFBE41o- (adenoviral transduction)
T2 sequence (P13569 with tags, fused parts or gaps DEL508-508): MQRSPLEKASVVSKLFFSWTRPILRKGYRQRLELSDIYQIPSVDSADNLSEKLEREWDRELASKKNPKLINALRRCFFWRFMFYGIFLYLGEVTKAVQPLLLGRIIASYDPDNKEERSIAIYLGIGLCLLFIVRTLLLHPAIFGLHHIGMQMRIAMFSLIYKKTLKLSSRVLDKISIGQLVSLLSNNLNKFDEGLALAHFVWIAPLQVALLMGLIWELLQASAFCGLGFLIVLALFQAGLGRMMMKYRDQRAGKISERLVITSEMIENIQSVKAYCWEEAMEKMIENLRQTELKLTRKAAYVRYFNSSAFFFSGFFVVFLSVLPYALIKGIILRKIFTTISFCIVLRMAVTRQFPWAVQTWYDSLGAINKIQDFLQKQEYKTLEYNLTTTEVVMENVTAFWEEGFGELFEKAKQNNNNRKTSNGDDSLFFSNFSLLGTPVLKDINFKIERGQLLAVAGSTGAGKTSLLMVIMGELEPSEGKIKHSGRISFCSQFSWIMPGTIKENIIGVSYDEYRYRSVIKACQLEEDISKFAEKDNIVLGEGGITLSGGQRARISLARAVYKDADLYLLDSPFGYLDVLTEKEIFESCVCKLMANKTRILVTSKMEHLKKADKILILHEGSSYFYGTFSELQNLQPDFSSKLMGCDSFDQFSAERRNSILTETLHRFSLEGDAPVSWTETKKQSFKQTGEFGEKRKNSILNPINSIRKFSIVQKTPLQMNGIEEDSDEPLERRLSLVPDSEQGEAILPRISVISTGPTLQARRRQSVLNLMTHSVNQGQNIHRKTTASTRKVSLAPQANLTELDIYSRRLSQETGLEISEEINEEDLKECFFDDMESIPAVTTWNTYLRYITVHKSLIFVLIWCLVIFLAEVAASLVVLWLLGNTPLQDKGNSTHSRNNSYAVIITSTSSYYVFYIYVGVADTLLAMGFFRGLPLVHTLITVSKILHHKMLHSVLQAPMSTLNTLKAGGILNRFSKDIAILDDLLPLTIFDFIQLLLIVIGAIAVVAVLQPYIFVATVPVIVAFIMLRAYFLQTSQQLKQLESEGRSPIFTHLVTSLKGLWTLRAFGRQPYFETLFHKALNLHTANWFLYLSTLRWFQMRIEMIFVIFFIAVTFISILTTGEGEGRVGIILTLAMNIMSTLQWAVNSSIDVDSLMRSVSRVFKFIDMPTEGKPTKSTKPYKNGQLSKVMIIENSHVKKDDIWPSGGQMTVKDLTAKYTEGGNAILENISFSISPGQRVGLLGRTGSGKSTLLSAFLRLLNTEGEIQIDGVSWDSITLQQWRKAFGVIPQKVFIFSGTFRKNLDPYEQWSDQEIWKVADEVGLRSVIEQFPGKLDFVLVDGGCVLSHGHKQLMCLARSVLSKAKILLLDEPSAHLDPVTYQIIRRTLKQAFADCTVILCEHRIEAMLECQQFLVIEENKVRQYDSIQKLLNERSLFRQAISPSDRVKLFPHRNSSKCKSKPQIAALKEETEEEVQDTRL
In words: YFP-halide influx assay for the CFTR-ΔF508 mutation (384 well, FDSS/μCell). The class given is cell-based. The conditions noted are these: CFBE41o- cells, CFTR-ΔF508, 1×D-PBS, fluorescence after 36 seconds. From the text: The YFP halide influx assay measures the functionality of the cystic fibrosis Transmembrane Conductance regulator (CFTR) channels in the cystic fibrosis bronchial epithelium cell line CFBE41o-. The assay is used to evaluate the capacity of compounds to increase the open probability of existing CFTR channels in the membrane. It makes use of the observation that the yellow fluorescent protein (YFP) variant YFP H148Q, I152L has its fluorescence substantially quenched by halide ions like Cl— and I—. (Galietta, Haggie, & Verkman, 2001) (Nagai, et al., 2002)
For this purpose, CFBE41o-cells are seeded in 384 well plates (3000 CFBE cells/well). One day after seeding, the CFBE cells are transduced with adenoviral vectors that direct the expression of the CFTR ΔF508 mutant and of the YFP reporter. Cells are incubated at 27° C., 5% CO2 for 24 hours so as to allow for the proper folding and migration to the membrane of the CFTR channel or treated with a CFTR modulator during 24 h at 37° C.
The I— induced quenching of fluorescence is recorded […] immediately after injection of I— for 2 min on an FDSS/μCell (Hamamatsu). The capacity of a compound to increase the channel opening is directly correlated with the decrease in fluorescence, and is expressed as (1-(fluorescence after 36 seconds (F)/fluorescence before injection (F0))) and an EC50 can be derived from a (1-F/F0) vs compound concentration plot.

T1 sequence (P13569 whole entry G551D): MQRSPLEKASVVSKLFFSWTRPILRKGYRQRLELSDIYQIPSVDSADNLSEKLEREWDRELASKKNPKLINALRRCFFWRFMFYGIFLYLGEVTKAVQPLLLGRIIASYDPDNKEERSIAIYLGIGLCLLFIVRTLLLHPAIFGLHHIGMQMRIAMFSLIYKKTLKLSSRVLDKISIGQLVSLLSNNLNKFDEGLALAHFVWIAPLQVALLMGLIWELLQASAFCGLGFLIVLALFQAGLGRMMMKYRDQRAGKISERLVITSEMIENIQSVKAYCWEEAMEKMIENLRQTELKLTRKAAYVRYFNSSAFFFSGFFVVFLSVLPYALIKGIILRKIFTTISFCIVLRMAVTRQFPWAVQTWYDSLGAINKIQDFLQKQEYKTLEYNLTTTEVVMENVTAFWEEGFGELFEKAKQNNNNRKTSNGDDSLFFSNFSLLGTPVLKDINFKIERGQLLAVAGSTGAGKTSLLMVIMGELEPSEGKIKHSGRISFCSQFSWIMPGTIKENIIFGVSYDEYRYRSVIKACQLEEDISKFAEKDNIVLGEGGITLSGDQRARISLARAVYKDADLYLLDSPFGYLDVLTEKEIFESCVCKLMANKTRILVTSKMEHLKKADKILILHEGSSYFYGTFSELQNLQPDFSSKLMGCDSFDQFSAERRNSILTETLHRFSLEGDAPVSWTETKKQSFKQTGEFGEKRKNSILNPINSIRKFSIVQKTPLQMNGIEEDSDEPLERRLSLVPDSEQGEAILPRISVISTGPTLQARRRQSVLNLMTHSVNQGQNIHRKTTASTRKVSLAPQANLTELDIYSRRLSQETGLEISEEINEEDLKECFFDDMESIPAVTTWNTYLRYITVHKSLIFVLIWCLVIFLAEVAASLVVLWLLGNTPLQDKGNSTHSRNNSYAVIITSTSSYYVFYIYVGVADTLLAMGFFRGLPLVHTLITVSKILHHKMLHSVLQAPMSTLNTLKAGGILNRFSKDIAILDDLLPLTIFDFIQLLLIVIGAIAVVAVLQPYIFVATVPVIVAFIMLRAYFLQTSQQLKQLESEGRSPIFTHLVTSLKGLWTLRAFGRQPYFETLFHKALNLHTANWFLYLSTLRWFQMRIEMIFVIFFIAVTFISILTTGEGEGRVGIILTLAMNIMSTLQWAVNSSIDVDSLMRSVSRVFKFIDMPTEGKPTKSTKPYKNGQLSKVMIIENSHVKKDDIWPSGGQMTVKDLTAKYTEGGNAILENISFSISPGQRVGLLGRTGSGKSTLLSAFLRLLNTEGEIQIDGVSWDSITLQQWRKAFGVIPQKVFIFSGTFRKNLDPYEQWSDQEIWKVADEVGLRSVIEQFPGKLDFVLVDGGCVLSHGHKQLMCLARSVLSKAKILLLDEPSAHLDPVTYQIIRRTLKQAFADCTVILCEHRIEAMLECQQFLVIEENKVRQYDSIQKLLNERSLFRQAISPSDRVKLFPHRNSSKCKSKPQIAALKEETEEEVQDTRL

In the case of “2-[[(2S)-2-hydroxy-3-methyl- butanoyl]amino]-5-[4- (trifluoromethyl)phenyl] sulfonyl-thiophene-3- carboxamide [Compound 366]”, the EC50 in test [1] is 0.458 µM; in test [1] (class symbol), 0.1 to 0.5 µM.

In the case of “5-(4-chlorophenyl)sulfonyl-2- [[(2S)-2-hydroxy-3- methyl-butanoyl]amino] thiophene-3-carboxamide [Compound 367]”, the EC50 is 0.794 µM in test [1] and 0.5 to 1 µM in test [1] (class symbol).

Take “5-(4-fluoro-2-(methoxymethyl) phenylsulfonyl)-2-(2-hydroxy- 2-methylpropanamido) thiophene-3-carboxamide [Compound 300]”: the figures for the EC50 in test [1] and in test [1] (class symbol) were 1.76 µM and > 1 µM, respectively.

On to “5-[[5-bromo-6- (trifluoromethyl)-3-pyridyl] sulfonyl]-2-[(2-hydroxy-2- methyl-propanoyl)amino] thiophene-3-carboxamide [Compound 441]”, for which the EC50 in test [1] (class symbol) was > 1 µM.

With `CC(O)C(=O)Nc1sc(S(=O)(=O)c2ccc(Cl)cc2)cc1C(N)=O` (single isomer, unassigned; enantiomer 1) [Compound 347], the EC50 in test [2] came out at 0.0191 µM; in test [1], 1.39 µM.

As to `C[C@H](O)C(=O)Nc1sc(S(=O)(=O)c2ccc(F)cc2C(F)(F)F)cc1C(N)=O` (single isomer, unassigned; enantiomer 1) [Compound 348], the EC50 in test [2] came out at 0.0164 µM; in test [1], 2.55 µM.

For the compound `CC(C)C(O)C(=O)Nc1sc(S(=O)(=O)c2ccc(F)cc2)cc1C(N)=O` (single isomer, unassigned; enantiomer 1) [Compound 352], the EC50 in test [2] is 0.0122 µM; in test [1], > 1.34 µM; in test [1] (class symbol), > 1 µM.

`CC(O)C(=O)Nc1sc(S(=O)(=O)c2ccc(F)cc2Cl)cc1C(N)=O` (single isomer, unassigned; enantiomer 1) [Compound 353]: the concentration for a half-maximal effect (EC50) is 0.0108 µM in test [2] and 1.72 µM in test [1].

`CC(O)C(=O)Nc1sc(S(=O)(=O)c2c(Cl)cc(F)cc2Cl)cc1C(N)=O` (single isomer, unassigned; enantiomer 1) [Compound 354] displayed an EC50 in test [1] of 1.26 µM.

As to `CCc1ccccc1S(=O)(=O)c1cc(C(N)=O)c(NC(=O)C(C)O)s1` (centres unmarked) [Compound 312, 5-(2-Ethyl-benzenesulfonyl)-2-(2-hydroxy-propionylamino)-thiophene-3-carboxylic acid amide], the EC50 in test [2] is 0.0105 µM; in test [1] it was 1.82 µM.

With `CC(O)C(=O)Nc1sc(S(=O)(=O)c2c(F)cccc2F)cc1C(N)=O` (centres unmarked) [Compound 313, 5-(2,6-Difluoro-benzenesulfonyl)-2-(2-hydroxy-propionylamino)-thiophene-3-carboxylic acid amide], the figures for the EC50 in test [2] and in test [1] were 0.0383 µM and 2.93 µM, respectively.

Consider `C[C@H](O)C(=O)Nc1sc(S(=O)(=O)c2c(Cl)cccc2Cl)cc1C(N)=O` [Compound 314, 5-(2,6-Dichloro-benzenesulfonyl)-2-((S)-2-hydroxy-propionylamino)-thiophene-3-carboxylic acid amide], for which the EC50 in test [2] was 0.0075 µM; in test [1], 0.458 µM.

Regarding `C[C@H](O)C(=O)Nc1sc(S(=O)(=O)c2ccc(OC(F)(F)F)cc2F)cc1C(N)=O` [Compound 444, 5-[2-fluoro-4-(trifluoromethoxy)phenyl] sulfonyl-2-[[(2S)-2-hydroxypropanoyl]amino] thiophene-3-carboxamide], the EC50 in test [2] is 0.0196 µM.

Regarding `C[C@H](O)C(=O)Nc1sc(S(=O)(=O)c2ccc(C(F)(F)F)cc2F)cc1C(N)=O` [Compound 445, 5-[2-fluoro-4-(trifluoromethyl)phenyl] sulfonyl-2-[[(2S)-2-hydroxypropanoyl]amino] thiophene-3-carboxamide], the EC50 in test [2] was found to be 0.0196 µM.

On to `CC(C)(CO)C(=O)Nc1sc(S(=O)(=O)c2ccc(OC(F)(F)F)cc2)cc1C(N)=O` [Compound 446, 2-[(3-hydroxy-2,2-dimethyl-propanoyl)amino]-5-[4-(trifluoromethoxy)phenyl] sulfonyl-thiophene-3-carboxamide], for which the EC50 in test [2] was found to be 0.0413 µM.

Broadly, the EC50 is the concentration that produces a half-maximal response. Lower therefore signals greater potency.
